The values below come from EP2767286B1, “ORAL PHARMACEUTICAL COMPOSITION FOR THE TREATMENT OF INFLAMMATORY GASTROINTESTINAL DISEASES” (Obshestvo S Ogranichennoj Otvetstvennostju "CytoNIR", priority 2011, dated 2018).

The test system of assay [1] is Versuchsmodell der toxischen Hepatitis. Put plainly: Hepatoprotective activity in the experimental model of toxic hepatitis (TCM). The format is in vivo, Ratten der Linie Sprague-Dawley. Particulars: 100 mg/kg, blood; for APh: alkalische Phosphatase. An excerpt: Beispiel 2 Bewertung der hepatoprotektiven Aktivität der erfindungsgemäßen pharmazeutischen Zubereitung bei Verabreichung am Versuchsmodell der toxischen Hepatitis.
Jede Versuchsgruppe zählte 10 Tiere. Die zu untersuchenden Präparate wurden den Ratten in Form von Wasserlösung intragastrisch mit einer atraumatischen Metallsonde eingeführt. Die Referenztiere bekamen Reinwasser verabreicht.
Als Vergleichspräparat wurde bei der Untersuchung der hepatoprotektiven Aktivität das Präparat Silibinin in Kapseln, Fabrikat Rosa-Phytopharm (Bulgarien) verwendet. in der gleichen Menge wie das Volumen der hepatoprotektiven Mittel behandelt. Die hepatoprotektive Aktivität wurde 7 und 14 Tage ab Anfang der Behandlung bewertet. Im Blutserum wurden die Aktivität von Aspartat-Amino-transferase (ASAT), Alanin-Aminotransferase (ALT), alkalische Phosphatase sowie der Cholesterinspiegel, Triglyzeridespiegel ermittelt. […]
Die statistische Datenverarbeitung wurde anhand der handelsüblichen Software Microsoft Excel durchgeführt. Die Unterschiede zwischen den Stichproben wurden anhand des Student t-Tests bewertet. […] Die Angaben sind in der Tabelle 3 aufgeführt. Tabelle 3. […] Tag […]

In assay [2] the test system is chronischen Duodenalulkus durch Heliobacter pylori. As to conditions: peroral, in complex therapy; cited from earlier work.
For assay [3], the system named is Modell des Indometacin-Magengeschwürs. As to the kind of experiment: Gastroprotective activity in the indometacin gastric ulcer model. Format: in vivo, Ratten der Linie Sprague-Dawley. An excerpt:
Beispiel 1 Gastroprotektive Aktivität der erfindungsgemäßen pharmazeutischen Zubereitung bei Verabreichung am Modell einer Geschwürbildung.
Die experimentelle Forschung wurde an 50 männlichen Auszucht-Ratten der Linie Sprague-Dawley mit einem Körpergewicht von 180 - 200 g durchgeführt. Vor den Versuchen wurden die Tiere einer 14 Tage langen Quarantäne und Randomisierung unterzogen. Die Tiere wurden unter Vivarium-Bedingungen mit genormter Nahrungsration unterhalten.
Die Tiere wurden in folgende Gruppen aufgeteilt: • Ratten, die mit einem ulzerogenen Präparat (Indometacin) und Kochsalzlösung (2 ml/kg) behandelt wurden; diese Tiere bilden die Vergleichsgruppe (Referenzgruppe); • Ratten, die mit einem ulzerogenen Präparat intragastrisch und einem Vergleichspräparat (Sucralfate in der Dosis von 200,0 mg/kg) behandelt wurden; • Ratten, die mit einem ulzerogenen Präparat intragastrisch und mit der pharmazeutischen Zubereitung (10,0 µg/kg) behandelt wurden; • Ratten, die mit einem ulzerogenen Präparat intragastrisch und mit der pharmazeutischen Zubereitung (0,1 µg/kg) behandelt wurden. physiologischen Lösung verabreicht. Die pharmazeutische Zubereitung und das Vergleichspräparat in den oben genannten Mengen wurden im Laufe von 7 Tagen ab dem Zeitpunkt der Simulation des Indometacin-Magengeschwürs (Heilschema) intragastrisch verabreicht. Die Tiere der Referenzgruppe wurden mit Äquivolumen-Mengen des Lösemittels unter entsprechenden Regimes behandelt.
Das Körpergewicht der Tiere wurde im Zeitablauf ermittelt. 24 Stunden nach Abschluss dieser Behandlung wurden die Tiere der Euthanasie mittels prompter Dekapitation unter Blutabnahme unterzogen. Die Mägen wurden entnommen, an der Minorseite aufgeschnitten und mit kalter Kochsalzlösung gewaschen. Die Destruktionszahl wurde makroskopisch mit Hilfe von einem Binokular unter heller Vertikalbeleuchtung ermittelt. Die Destruktionen wurden je nach ihrem Flächeninhalt wie folgt differenziert: Fein (punktförmig, Größe von unter 1 mm), mittelmäßig (rund und streifenförmig, ab 1 mm) und groß (über 1- 2 mm). Das Vorhandensein von Blut an der Destruktionsunterkante wurde anhand der Peroxydase-Reaktion mit Orthodianisidin-Substrat unter Kennfärben der Schleimhaut mit Methylenblau erkannt. Dabei wurde die hämhaltige Oberfläche braun-schwarz im bläulichen Hintergrund der intakten Schleimhaut gefärbt.
Die Verteilung der Tiere in der Gruppe mit Schleimhautfehlern wurde je nach Grad der Ausprägung der makroskopischen Änderungen erfasst. Der Paul's Index (PI) wurde wie folgt berechnet: durchschnittliche Geschwürmenge x % der Tiere mit Geschwüren / 100 %. Die gastroprotektive Aktivität (GA) wurde als PI / PI Verhältnis zwischen der Referenzgruppe und einer Versuchsgruppe berechnet. Das zu untersuchende Präparat wurde als aktiv beurteilt, wenn GA 2 und mehr betrug.
Die statistische Datenverarbeitung wurde anhand der handelsüblichen Software Microsoft Excel durchgeführt. Die Relevanz der Änderungen wurde unter Anwendung des Student t-Tests berechnet.

For assay [4], the system named is nicht durch Heliobacter pylori assoziierte Magengeschwüren. As to conditions: peroral, in complex therapy; cited from earlier work.

Marks after values point to notes of the source that are not given here. Ends that are not written are not given here.

For the compound `COc1cc(C2Oc3cc([C@H]4Oc5cc(O)cc(O)c5C(=O)[C@@H]4O)ccc3OC2CO)ccc1O` (some centres unmarked) [Silibinin], in assay [1] (7. Behandlungstag), the APh was 469±30 nMol/s x L, the ALAT was 1,56±0,12 mMol/Einheiten x L, the ASAT is given as 1,28±0,15 mMol/Einheiten x L and the Cholesterin is 3,60±0,18 mMol/ L. Further, the Triglyzeride in assay [1] (7. Behandlungstag) is 2,44±0,12 mMol/ L. In assay [1] (14. Behandlungstag), the APh turned out to be 288±17 nMol/s x L, the ALAT is 0,99±0,16 mMol/Einheiten x L, the ASAT is 0,75±0,11 mMol/Einheiten x L and the Cholesterin is 1,99±0,12 mMol/ L. Further, the Triglyzeride in assay [1] (14. Behandlungstag) is 1,48±0,14 mMol/ L.
In the case of “N-Acetyl- Glukosaminyl- 1 -4-N-Acetylmuramid- L-Alanyl- D-Isoglutamin [Licopid]”, the “Eradikation von Heliobacter pylori und Wiederherstellung der Magenschleimhaut” value in assay [2] is given as “hohe Effizienz hinsichtlich der Eradikation von Heliobacter pylori”.
In the case of Sucralfate, in assay [3] (200 mg/kg intragastric, 7 days), the “Anzahl der Geschwüre (X ± m) Fein” value is listed as 8±2, the “Anzahl der Geschwüre (X ± m) Groß” value amounted to 5±2, the “Anzahl der Geschwüre (X ± m) Mittelmäßig” value was 4±1 and the “Tiere mit Geschwüren” value came to 100%. Moreover, the PI in assay [3] (200 mg/kg intragastric, 7 days, Paul's Index) is on record as 16,9*. In addition, the GA in assay [3] (200 mg/kg intragastric, 7 days, gastroprotektive Aktivität, PI reference / PI test group, active if 2 or more) is reported as 2,05. In addition, the “Durchschnitt (X±m)” value in assay [3] (200 mg/kg intragastric, 7 days, mean number of ulcers) worked out at 17±4. For the same compound, in assay [3] (200 mg/kg intragastric, 3 Tage), the “Körpergewichtsverlauf (M±m)” value came to 186 ± 4 g. For the same compound, in assay [3] (200 mg/kg intragastric, 7 Tage), the “Körpergewichtsverlauf (M±m)” value turned out to be 169 ± 3 g. In addition, the “Körpergewichtsverlauf (M±m)” value in assay [3] (200 mg/kg intragastric, Hintergrund (baseline)) amounted to 198 ± 3 g. In assay [3] (Sucralfate 200 mg/kg), the “Hyperämie der Schleimhaut, Anteil der Tiere” value came out at 40%.
With “TEKRRETVEREKE [Gepon, synthetischer Peptid-Immunmodulator]”, the “Regeneration, Vernarbungszeit, zellgebundene Immunität” value in assay [4] was “Beschleunigung der Regenerationsvorgänge, zur Abkürzung der Vernarbungszeit des ulzerösen Defekts und zur Verbesserung der Kenndaten der zellgebundenen Immunität”.
